Laboratory results from US12503463B2, “Aliphatic acid amide derivative” (Sumitomo Pharma Co., Ltd., priority 2019, dated 2025).

Assay: Test 3-1: metabolic stability test in human hepatic microsome
Assay type: in vitro ADME
Conditions: Test 3-1: microsome 0.1 mg/mL, test compound 0.1 μmol/L, 37° C., 30 minutes
Experimental: Test 3-1: Metabolic Stability Test in Human Hepatic Microsome
The metabolic stability of the present compound in human hepatic microsome was evaluated as mentioned below. Human hepatic microsome was obtained from Xenontech. Human hepatic microsome, NADPH, and each test compound were mixed in 25 mmol/L phosphate buffer solution (pH 7.4) to reach the following concentrations as shown below, and the mixture was incubated at 37° C. for 30 minutes. • Human hepatic microsome: 0.1 mg/mL • NAPDH: 3.2 mmol/L • Test compound: 0.1 μmol/L
The residual ratio of test compound in each sample after 30 minutes was measured by LC-MS, and the metabolic stability in human hepatic microsome was calculated from the following formula. Metabolic stability in human hepatic microsome(mL/min/mg protein)=−LN(residual ratio)/30/0.1

Compound	Metabolic stability in human hepatic microsome [mL/min/mg protein]
CCN(CCN1CCC(c2noc3cc(F)ccc23)CC1)C(=O)[C@@H](C)O [Example 1, (2R)-N-Ethyl-N-{2-[4-(6-fluoro-1,2-benzoisoxazol-3-yl)piperidin-1-yl]ethyl}-2-hydroxypropanamide]	<0.05
CCN(CCN1CCC(n2ncc3cc(F)ccc32)CC1)C(=O)CCO [Example 2, N-Ethyl-N-{2-[4-(5-fluoro-1H-indazol-1-yl)piperidin-1-yl]ethyl}-3-hydroxypropanamide]	<0.05
CCN(CCN1CCC(n2ncc3cc(F)ccc32)CC1)C(=O)[C@@H](C)O [Example 3, (2R)-N-Ethyl-N-{2-[4-(5-fluoro-1H-indazol-1-yl)piperidin-1-yl]ethyl}-2-hydroxypropanamide]	<0.05
CCN(CCN1CCC(c2noc3cc(F)ccc23)CC1)C(=O)C(C)O (stereo not shown) [Example 4]	<0.05
CCN(CCN1CCC(c2noc3cc(F)ccc23)CC1)C(=O)C(C)(C)O [Example 6]	0.053
CCN(CCN1CCC(c2noc3cc(F)ccc23)CC1)C(=O)C(C)(C)CO [Example 7]	0.08
CCN(CCN1CCC(c2noc3cc(F)ccc23)CC1)C(=O)C1CCC(O)CC1 (stereo not shown) [Example 9]	<0.05
CCN(CCN1CCC(c2noc3cc(F)ccc23)CC1)C(=O)CC(C)O (stereo not shown) [Example 10]	<0.05
CCN(CCN1CCC(c2noc3cc(F)ccc23)CC1)C(=O)C1(O)CCOCC1 [Example 11]	<0.05
CCN(CCN1CCC(c2noc3cc(F)ccc23)CC1)C(=O)CO [Example 12]	0.089
CCN(CCN1CCC(c2noc3cc(F)c(C)cc23)CC1)C(=O)[C@H](C)O [Example 13]	0.054
CCN(CCN1CCC(c2noc3cc(F)ccc23)CC1)C(=O)C(O)COC (stereo not shown) [Example 18, N-Ethyl-N-{2-[4-(6-fluoro-1,2-benzoisoxazol-3-yl)piperidin-1-yl]ethyl}-2-hydroxy-3-methoxypropanamide]	<0.05
CCN(CCN1CCC(c2n[nH]c3cc(F)ccc23)CC1)C(=O)C(C)O (stereo not shown) [Example 19, N-Ethyl-N-{2-[4-(6-fluoro-1H-indazol-3-yl)piperidin-1-yl]ethyl}-2-hydroxypropanamide]	<0.05
CCN(CCN1CCC(c2c[nH]c3cc(F)ccc23)CC1)C(=O)[C@H](C)O [Example 20, (2S)-N-Ethyl-N-{2-[4-(6-fluoro-1H-indol-3-yl)piperidin-1-yl]ethyl}-2-hydroxypropanamide]	<0.05
CCN(CCN1CCC(n2ncc3cc(F)ccc32)CC1)C(=O)[C@H](C)O [Example 21, (2S)-N-Ethyl-N-{2-[4-(5-fluoro-1H-indazol-1-yl)piperidin-1-yl]ethyl}-2-hydroxypropanamide]	<0.05
CCN(CCN1CCC(c2c[nH]c3ccccc23)CC1)C(=O)C(C)O (stereo not shown) [Example 22, N-Ethyl-2-hydroxy-N-{2-[4-(1H-indol-3-yl)piperidin-1-yl]ethyl}propanamide]	<0.05
CCN(CCN1CCC(c2c[nH]c3ccccc23)CC1)C(=O)[C@H](C)O [Example 23, (2S)-N-Ethyl-2-hydroxy-N-{2-[4-(1H-indol-3-yl)piperidin-1-yl]ethyl}propanamide]	<0.05
CCN(CCN1CCC(c2noc3cc(F)ccc23)CC1)C(=O)C1(O)CC1 [Example 24]	<0.05
CCN(CCN1CCC(c2noc3ccccc23)CC1)C(=O)C(C)O (stereo not shown) [Example 25]	<0.05
CCN(CCN1CCN(c2noc3ccccc23)CC1)C(=O)C(C)O (stereo not shown) [Example 26]	<0.05
CCN(CCN1CCN(c2noc3cc(F)ccc23)CC1)C(=O)C(C)O (stereo not shown) [Example 27]	<0.05
CC[C@@H](O)C(=O)N(CC)CCN1CCC(c2noc3cc(F)ccc23)CC1 [Example 29]	<0.05
CC(O)C(=O)N(CCN1CCC(c2noc3cc(F)ccc23)CC1)CC1CC1 (stereo not shown) [Example 30]	<0.05
CC(O)C(=O)N(CCN1CCC(c2noc3cc(F)ccc23)CC1)C(C)C (stereo not shown) [Example 31]	<0.05
CCN(CCN1CCC(c2noc3cc(F)ccc23)CC1)C(=O)C(O)C(F)(F)F (stereo not shown) [Example 34]	<0.05
CC(C)N(CCN1CCC(c2noc3cc(F)ccc23)CC1)C(=O)CCO [Example 35]	<0.05

Compound	Metabolic stability in human hepatic microsome [mL/min/mg protein]
CCN(CCN1CCC(c2noc3cc(F)ccc23)CC1)C(=O)C(F)(F)CO [Example 36]	<0.05
CCN(CCN1CCC(c2noc3cc(F)ccc23)CC1)C(=O)C(C)CO (stereo not shown) [Example 37]	<0.05
CCN(CCCN1CCC(c2noc3cc(F)ccc23)CC1)C(=O)[C@H](C)O [Example 38]	<0.05
CCCN(CCN1CCC(c2noc3cc(F)ccc23)CC1)C(=O)C(C)O (stereo not shown) [Example 39]	<0.05
[2H]C(C)(O)C(=O)N(CC)CCN1CCC(c2noc3cc(F)ccc23)CC1 (stereo not shown) [Example 40]	<0.05
CC(C)N(CCN1CCC(c2noc3cc(F)ccc23)CC1)C(=O)[C@H](C)O [Example 41]	<0.05
CC(C)N(CCN1CCC(c2noc3cc(F)ccc23)CC1)C(=O)[C@@H](C)O [Example 42]	<0.05
CCN(CCN1CCC(c2noc3cc(F)ccc23)CC1)C(=O)[C@H]1CC[C@H](O)CC1 [Example 43]	<0.05
CCN(CCN1CCC(c2noc3cc(F)ccc23)CC1)C(=O)[C@H]1CC[C@@H](O)CC1 [Example 44]	<0.05
CCN(CCN1CCC(c2noc3ccc(F)cc23)CC1)C(=O)[C@H](C)O [Example 45]	<0.05
CCN(CCN1CCC(c2noc3cc(F)ccc23)CC1)C(=O)C1CC(O)C1 (stereo not shown) [Example 46]	<0.05
CCN(CCN1CCC(c2c[nH]c3ccccc23)CC1)C(=O)CCO [Example 47]	<0.05
CCN(CCN1CCC(c2c[nH]c3cc(F)ccc23)CC1)C(=O)CCO [Example 48]	<0.05
CCN(CCN1CCC(c2c[nH]c3ccccc23)CC1)C(=O)[C@@H](C)O [Example 49]	<0.05
CCN(CCN1CCC(n2ccc3cc(F)ccc32)CC1)C(=O)C(C)O (stereo not shown) [Example 50]	<0.05
CCN(CCCN1CCC(c2noc3cc(F)ccc23)CC1)S(=O)(=O)CCO [Example 53]	<0.05
CCN(CCCN1CCC(c2noc3ccccc23)CC1)S(=O)(=O)C(C)CO (stereo not shown) [Example 54]	<0.05
CCN(CCCN1CCN(c2noc3cc(F)ccc23)CC1)S(=O)(=O)C(C)CO (stereo not shown) [Example 55]	0.059
CCN(CCCN1CCC(c2noc3cc(F)ccc23)CC1)S(=O)(=O)C(C)CO (stereo not shown) [Example 56]	<0.05
CCN(CCN1CCC(c2c[nH]c3ccccc23)CC1)S(=O)(=O)CCO [Example 57]	0.06
CCN(CCN1CCC(c2noc3cc(F)c(C)cc23)CC1)S(=O)(=O)CCO [Example 58]	<0.05
CCN(CCN1CCC(c2noc3ccc(C)cc23)CC1)S(=O)(=O)CCO [Example 59]	0.079
CCN(CCN1CCC(c2noc3ccccc23)CC1)S(=O)(=O)CCO [Example 61]	<0.05
CCN(CCN1CCC(c2c[nH]c3cc(F)ccc23)CC1)S(=O)(=O)CCO [Example 62]	<0.05
CCN(CCN1CCC(n2ncc3cc(F)ccc32)CC1)S(=O)(=O)CCO [Example 63]	<0.05
CCN(CCN1CCC(n2ncc3cc(F)ccc32)CC1)S(=O)(=O)C(C)CO (stereo not shown) [Example 64]	0.097
